{
  "source": "patent US6706663B2",
  "about": "“Herbicidal 3-heterocyclic substituted benzisothiazole and benzisoxazole compounds” (Wyeth, priority 2000, dated 2004)",
  "key": {"[1]": {"tested_on": "IPOHE (Ipomoea hederacea)", "test": "Preemergence herbicidal evaluation", "format": "in vivo, (L.) Jacq.", "conditions": "rated 4-5 weeks after treatment"}, "[2]": {"tested_on": "MOOVA (Monochoria vaginalis)", "test": "Flooded paddy, preemergence weed control", "format": "in vivo, Presl.", "conditions": "rated 3-4 weeks after treatment, 0-9 rating scale", "summary_of_the_method": "(§1)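 Under paddy conditions, seeds or vegetative propagules go into the top 0.5 cm of silt loam; the soil is then flooded to 1.5–3 cm and kept so. Treated pots stay in a greenhouse; response is rated 0-9 visually versus control.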"}, "[3]": {"tested_on": "TRZAWR (Wheat, Winter, cv Riband)", "test": "Preemergence herbicidal evaluation", "format": "in vivo, Triticum aestivum", "conditions": "rated 4-5 weeks after treatment", "summary_of_the_method": "(§2)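 Greenhouse preemergence test: freshly planted cups were sprayed once with an aqueous acetone solution of compound. Injury was judged visually on a 0–9 scale relative to a control, four to five weeks later.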"}, "ZEAMX (Corn, Field)": {"tested_on": "ZEAMX (Corn, Field)", "test": "Preemergence herbicidal evaluation", "format": "in vivo, Zea mays, L.", "conditions": "rated 4-5 weeks after treatment"}, "CYPIR (Cyperus iria)": {"tested_on": "CYPIR (Cyperus iria)", "test": "Flooded paddy, preemergence weed control", "format": "in vivo", "conditions": "rated 3-4 weeks after treatment, 0-9 rating scale", "summary_of_the_method": "as §1"}, "[4]": {"tested_on": "ABUTH (Abutilon theophrasti)", "test": "Postemergence herbicidal evaluation", "format": "in vivo, Medic.", "conditions": "postemergence", "summary_of_the_method": "(§3)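 Seedlings grown for about two weeks were sprayed postemergence and then kept under standard greenhouse care. Injury was rated visually 4–5 weeks after treatment on a 0–9 scale against untreated controls, and ratings from repeat tests were averaged.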"}, "[5]": {"tested_on": "GLXMAW (Soybean, Williams)", "test": "Preemergence herbicidal evaluation", "format": "in vivo, Glycine max, (L.) Merr. cv Williams", "conditions": "rated 4-5 weeks after treatment"}, "[6]": {"tested_on": "CASOB (Cassia obtusifolia)", "test": "Postemergence herbicidal evaluation", "format": "in vivo, L.", "conditions": "postemergence", "summary_of_the_method": "as §3"}, "[7]": {"tested_on": "AMBEL (Ambrosia artemisifolia)", "test": "Postemergence herbicidal evaluation", "format": "in vivo, L.", "conditions": "postemergence", "summary_of_the_method": "as §3"}, "[8]": {"tested_on": "CHEAL (Chenopodium album)", "test": "Postemergence herbicidal evaluation", "format": "in vivo, L.", "conditions": "postemergence", "summary_of_the_method": "as §3"}, "[9]": {"tested_on": "IPOHE (Ipomoea hederacea)", "test": "Postemergence herbicidal evaluation", "format": "in vivo, (L.) Jacq.", "conditions": "postemergence", "summary_of_the_method": "as §3"}, "[10]": {"tested_on": "ABUTH (Abutilon theophrasti)", "test": "Preemergence herbicidal evaluation", "format": "in vivo, Medic.", "conditions": "rated 4-5 weeks after treatment"}, "[11]": {"tested_on": "CASOB (Cassia obtusifolia)", "test": "Preemergence herbicidal evaluation", "format": "in vivo, L.", "conditions": "rated 4-5 weeks after treatment", "summary_of_the_method": "as §2"}, "[12]": {"tested_on": "AMBEL (Ambrosia artemisifolia)", "test": "Preemergence herbicidal evaluation", "format": "in vivo, L.", "conditions": "rated 4-5 weeks after treatment", "summary_of_the_method": "as §2"}, "[13]": {"tested_on": "CHEAL (Chenopodium album)", "test": "Preemergence herbicidal evaluation", "format": "in vivo, L.", "conditions": "rated 4-5 weeks after treatment", "summary_of_the_method": "as §2"}, "SETVI (Setaria viridis)": {"tested_on": "SETVI (Setaria viridis)", "test": "Preemergence herbicidal evaluation", "format": "in vivo, (L.) Beau", "conditions": "rated 4-5 weeks after treatment", "summary_of_the_method": "as §2"}, "[14]": {"tested_on": "ECHCG (Echinochloa crus-galli)", "test": "Preemergence herbicidal evaluation", "format": "in vivo, (L.) Beau", "conditions": "rated 4-5 weeks after treatment", "summary_of_the_method": "as §2"}, "ORYSAT (Rice, Tebonnet) [15]": {"tested_on": "ORYSAT (Rice, Tebonnet)", "test": "Flooded paddy, post-transplant rice tolerance", "format": "in vivo, Oryza sativa, (L.) Tebonnet", "conditions": "flooded paddy, post-transplant rice, rated 3-4 weeks after treatment, 0-9 rating scale", "summary_of_the_method": "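Two ten-day-old Tebonnet rice seedlings transplanted into silt loam, then flooded with water held at 1.5–3 cm above soil; herbicide applied post-transplant. Plants kept in greenhouse and rated visually 0–9 versus untreated control for stand, vigor, malformation, size and chlorosis.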"}, "[16]": {"tested_on": "GLXMAW (Soybean, Williams)", "test": "Postemergence herbicidal evaluation", "format": "in vivo, Glycine max, (L.) Merr. cv Williams", "conditions": "postemergence", "summary_of_the_method": "as §3"}, "ORYSAT (Rice, Tebonnet) [17]": {"tested_on": "ORYSAT (Rice, Tebonnet)", "test": "Postemergence herbicidal evaluation", "format": "in vivo, Oryza sativa, (L.) Tebonnet", "conditions": "postemergence", "summary_of_the_method": "as §3"}},
  "data": [
    {"smiles": "CC1COC(c2nsc3ccc(-n4c(=O)cc(C(F)(F)F)n(C)c4=O)cc23)O1", "note": "(stereo not shown) [Compound 57, 1-methyl-3-[3-(4-methyl-1,3-dioxolan-2-yl)-1,2-benzisothiazol-5-yl]-6-(trifluoromethyl)uracil]", "values": [
      {"measurement": "Preemergence herbicidal rating IPOHE", "setting": "[1]; Rate 0.0620 kg/ha", "result": 9.0},
      {"measurement": "Preemergence herbicidal rating IPOHE", "setting": "[1]; Rate 0.1250 kg/ha", "result": 9.0},
      {"measurement": "Preemergence herbicidal rating IPOHE", "setting": "[1]; Rate 0.2500 kg/ha", "result": 9.0},
      {"measurement": "herbicidal rating, MOOVA", "setting": "[2]; rate 0.0320 kg/ha", "result": 9.0},
      {"measurement": "herbicidal rating, MOOVA", "setting": "[2]; rate 0.1250 kg/ha", "result": 9.0},
      {"measurement": "Preemergence herbicidal rating TRZAWR", "setting": "[3]; Rate 0.0620 kg/ha", "result": 8.0},
      {"measurement": "Preemergence herbicidal rating TRZAWR", "setting": "[3]; Rate 0.1250 kg/ha", "result": 8.0},
      {"measurement": "Preemergence herbicidal rating TRZAWR", "setting": "[3]; Rate 0.2500 kg/ha", "result": 9.0},
      {"measurement": "Preemergence herbicidal rating ZEAMX", "setting": "ZEAMX (Corn, Field); Rate 0.0620 kg/ha", "result": 7.5},
      {"measurement": "Preemergence herbicidal rating ZEAMX", "setting": "ZEAMX (Corn, Field); Rate 0.1250 kg/ha", "result": 8.0},
      {"measurement": "Preemergence herbicidal rating ZEAMX", "setting": "ZEAMX (Corn, Field); Rate 0.2500 kg/ha", "result": 9.0},
      {"measurement": "herbicidal rating, CYPIR", "setting": "CYPIR (Cyperus iria); rate 0.0080 kg/ha", "result": 0.0},
      {"measurement": "herbicidal rating, CYPIR", "setting": "CYPIR (Cyperus iria); rate 0.0320 kg/ha", "result": 7.5},
      {"measurement": "herbicidal rating, CYPIR", "setting": "CYPIR (Cyperus iria); rate 0.1250 kg/ha", "result": 9.0},
      {"measurement": "ABUTH herbicidal rating", "setting": "[4]; rate 0.0320 kg/ha", "result": 9.0},
      {"measurement": "ABUTH herbicidal rating", "setting": "[4]; rate 0.0620 kg/ha", "result": 9.0},
      {"measurement": "Preemergence herbicidal rating GLXMAW", "setting": "[5]; Rate 0.0620 kg/ha", "result": 9.0},
      {"measurement": "Preemergence herbicidal rating GLXMAW", "setting": "[5]; Rate 0.1250 kg/ha", "result": 9.0},
      {"measurement": "Preemergence herbicidal rating GLXMAW", "setting": "[5]; Rate 0.2500 kg/ha", "result": 9.0},
      {"measurement": "CASOB herbicidal rating", "setting": "[6]; rate 0.0320 kg/ha", "result": 7.0},
      {"measurement": "CASOB herbicidal rating", "setting": "[6]; rate 0.0620 kg/ha", "result": 9.0},
      {"measurement": "AMBEL herbicidal rating", "setting": "[7]; rate 0.0320 kg/ha", "result": 9.0},
      {"measurement": "AMBEL herbicidal rating", "setting": "[7]; rate 0.0620 kg/ha", "result": 9.0},
      {"measurement": "CHEAL herbicidal rating", "setting": "[8]; rate 0.0320 kg/ha", "result": 9.0},
      {"measurement": "CHEAL herbicidal rating", "setting": "[8]; rate 0.0620 kg/ha", "result": 7.0},
      {"measurement": "IPOHE herbicidal rating", "setting": "[9]; rate 0.0320 kg/ha", "result": 9.0},
      {"measurement": "IPOHE herbicidal rating", "setting": "[9]; rate 0.0620 kg/ha", "result": 9.0},
      {"measurement": "Preemergence herbicidal rating ABUTH", "setting": "[10]; Rate 0.0620 kg/ha", "result": 9.0},
      {"measurement": "Preemergence herbicidal rating ABUTH", "setting": "[10]; Rate 0.1250 kg/ha", "result": 9.0},
      {"measurement": "Preemergence herbicidal rating ABUTH", "setting": "[10]; Rate 0.2500 kg/ha", "result": 9.0},
      {"measurement": "Preemergence herbicidal rating CASOB", "setting": "[11]; Rate 0.0620 kg/ha", "result": 5.5},
      {"measurement": "Preemergence herbicidal rating CASOB", "setting": "[11]; Rate 0.1250 kg/ha", "result": 7.5},
      {"measurement": "Preemergence herbicidal rating CASOB", "setting": "[11]; Rate 0.2500 kg/ha", "result": 9.0},
      {"measurement": "Preemergence herbicidal rating AMBEL", "setting": "[12]; Rate 0.0620 kg/ha", "result": 9.0},
      {"measurement": "Preemergence herbicidal rating AMBEL", "setting": "[12]; Rate 0.1250 kg/ha", "result": 9.0},
      {"measurement": "Preemergence herbicidal rating AMBEL", "setting": "[12]; Rate 0.2500 kg/ha", "result": 9.0},
      {"measurement": "Preemergence herbicidal rating CHEAL", "setting": "[13]; Rate 0.0620 kg/ha", "result": 9.0},
      {"measurement": "Preemergence herbicidal rating CHEAL", "setting": "[13]; Rate 0.1250 kg/ha", "result": 9.0},
      {"measurement": "Preemergence herbicidal rating CHEAL", "setting": "[13]; Rate 0.2500 kg/ha", "result": 9.0},
      {"measurement": "Preemergence herbicidal rating SETVI", "setting": "SETVI (Setaria viridis); Rate 0.0620 kg/ha", "result": 9.0},
      {"measurement": "Preemergence herbicidal rating SETVI", "setting": "SETVI (Setaria viridis); Rate 0.1250 kg/ha", "result": 9.0},
      {"measurement": "Preemergence herbicidal rating SETVI", "setting": "SETVI (Setaria viridis); Rate 0.2500 kg/ha", "result": 9.0},
      {"measurement": "Preemergence herbicidal rating ECHCG", "setting": "[14]; Rate 0.0620 kg/ha", "result": 9.0},
      {"measurement": "Preemergence herbicidal rating ECHCG", "setting": "[14]; Rate 0.1250 kg/ha", "result": 9.0},
      {"measurement": "Preemergence herbicidal rating ECHCG", "setting": "[14]; Rate 0.2500 kg/ha", "result": 9.0},
      {"measurement": "herbicidal rating, ORYSAT (rice tolerance)", "setting": "ORYSAT (Rice, Tebonnet) [15]; rate 0.0080 kg/ha", "result": 3.0},
      {"measurement": "herbicidal rating, ORYSAT (rice tolerance)", "setting": "ORYSAT (Rice, Tebonnet) [15]; rate 0.0320 kg/ha", "result": 8.0},
      {"measurement": "herbicidal rating, ORYSAT (rice tolerance)", "setting": "ORYSAT (Rice, Tebonnet) [15]; rate 0.1250 kg/ha", "result": 9.0},
      {"measurement": "GLXMAW herbicidal rating", "setting": "[16]; rate 0.0320 kg/ha", "result": 7.0},
      {"measurement": "GLXMAW herbicidal rating", "setting": "[16]; rate 0.0620 kg/ha", "result": 8.5},
      {"measurement": "ORYSAT herbicidal rating", "setting": "ORYSAT (Rice, Tebonnet) [17]; rate 0.0320 kg/ha", "result": 4.0},
      {"measurement": "ORYSAT herbicidal rating", "setting": "ORYSAT (Rice, Tebonnet) [17]; rate 0.0620 kg/ha", "result": 4.5}
    ]}
  ]
}
